# Experimental data reported in paper PMC9305975 (Journal of the American Chemical Society, 2022).
# Molecular target: VcRibB (RibB, 3,4-dihydroxy-2-butanone 4-phosphate synthase) (Vibrio cholerae, UniProt Q9KKP2)
# Settings: two Mn2+ in the active site; non-substrate analogue
# Sequence of VcRibB (RibB, 3,4-dihydroxy-2-butanone 4-phosphate synthase) (Q9KKP2 whole entry): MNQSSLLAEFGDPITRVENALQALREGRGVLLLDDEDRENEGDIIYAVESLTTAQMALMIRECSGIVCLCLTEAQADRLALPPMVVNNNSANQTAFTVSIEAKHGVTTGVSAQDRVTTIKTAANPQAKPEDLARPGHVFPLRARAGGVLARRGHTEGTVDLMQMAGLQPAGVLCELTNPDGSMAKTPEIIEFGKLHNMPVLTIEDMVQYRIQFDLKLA
smiles,measurement,value
O=C(CO)[C@H](O)[C@@H](O)COP(=O)(O)O [L-xylulose 5-phosphate],X-ray crystal structure; EPR,"L-xylulose 5-phosphate (L-Xy5P), showing two manganese ions and a significantly different, more twisted binding"
